# Measured values as given in patent publication US11253527B2, “Method and composition for inhibiting virus infection” (priority 2019, dated 2022).
# Legend:
# [1] = tested on: HuS-E/2 immortalized human primary hepatocytes cells; experiment: MTT cell viability, HuS-E/2 cells; conditions: 48 h, 50 μg/ml
# HBV = HBV replication, assembly, secretion in HepG2.2.15 cells (HBsAg/HBeAg ELISA, HBV DNA real-time PCR); type: cell-based, Hepatitis B virus
# Method: (§1) HepG2.2.15 cells were cultured with different concentrations of Antrodia camphorata fruit body extracts for 48 h, then the culture medium was collected to measure HBV HBsAg by ELISA. HepG2, containing no HBV, was used as a negative control (NC). The results are expressed as a percentage of the non-drug-treated positive control (NT) and are shown as mean±SD for three independent experiments. *, P<0.05; **, P<0.01; ***, P<0.001.
# as §1, with “HBeAg” for “HBsAg”
# as §1, with “DNA” for “HBsAg”, “real-time PCR. Plasmid p1.3HBcl, which contains a 1.3-fold HBV genome (ayw subtype (Galibert et al., 1979)), was used as standard in parallel PCR reactions, while” for “ELISA.”
# Continuous HBV proliferation can be achieved in HepG2.2.15 cells (RRID:CVCL_L855) stably transfected with the HBV genome of the adw2 subtype. HepG2.2.15 cells are used because of the unlimited supply and constant quality and were maintained in Dulbecco's modified Eagle medium (DMEM; Invitrogen) supplemented with 10% heat-inactivated fetal bovine serum (FBS; Thermo) plus 100 units of penicillin and 100 µg of streptomycin per ml (both from Invitrogen).
# The culture medium from drug-treated HepG2.2.15 cells is clarified by centrifugation at 1,000×g at 4° C. for 10 min, and then the supernatant is layered on top of a 20% sucrose cushion (20% sucrose, 20 mM HEPES, pH 7.4, 0.1% bovine serum albumin [BSA]) and centrifuged at 197,000×g for 3 h at 4° C. to pellet the HBV particles, which are then concentrated 100 fold to detect HBV DNA.
# Total DNA is extracted with a Genomic DNA isolation kit (Nexttec Biotechnologie, Germany). Total RNA is isolated from cultured cells using TRIzol® reagent (Invitrogen). Reverse transcription is performed with the RNA templates, AMV reverse transcriptase (Roche), and oligo-dT primer. The products are subjected to real-time PCR with primer sets of specific genes and SYBR Green PCR Master Mix (Bio-Rad). The primer sets used for HBV core, HBsAg, cccDNA and GAPDH are described. The results are analyzed with the iCycler iQ real-time PCR detection system (Bio-Rad). Plasmid p1.3HBcl is prepared at 10-fold dilutions (2*10^4-2*10^9 […] to generate a standard curve in parallel PCR reactions.
# To test whether Antrodia camphorata fruit body extracts had any effect on HBV genome replication, assembly, or secretion, HepG2.2.15 cells, which stably transfected with HBV genome, were used to incubate with four Antrodia camphorata fruit body extracts for 48 hours, then HBsAg, HBeAg and HBV DNA collected from medium were measured by ELISA and real-time PCR.
# [2] = 48 h, at 20 μg/ml and 50 μg/ml, percentage of non-drug-treated control
structure (smiles),measurement,setting,value
"C=C(CC[C@@H](C)[C@H]1CC[C@H]2C3=C(C(=O)C[C@]12C)[C@@]1(C)CCC(O)[C@](C)(O)C1CC3O)C(C)C(=O)O (some centres unmarked) [A4, antcin K]",toxic effect (MTT cell viability),[1],no toxic effect
same,"HBV replication, the assembly or release of viral particles",HBV,significantly inhibits
same,HBV DNA repressed to,"HBV; 48 h, 50 μg/ml, percentage of non-drug-treated control",55%
same,"level of HBeAg in the culture supernatant, decreased to",HBV; [2],50-60%
same,"level of HBsAg in the culture supernatant, decreased to",HBV; [2],50-60%
same,"HBsAg protein levels, dose dependence",HBV; FIG. 2A,marked dose-dependent reduction
same,"core protein levels, dose dependence",HBV; FIG. 2B,marked dose-dependent reduction
same,"HBV DNA in particles, dose dependence",HBV; FIG. 2C,marked dose-dependent reduction
